Assay results reported in ChEMBL document CHEMBL5375952, “Discovery of Novel 8-Hydroxyquinoline Derivatives with Potent In Vitro and In Vivo Antifungal Activity” (J Med Chem, 2023).
Calls of active or inactive are those of the source. The rule behind the calls is not given here.

Experiments:
Candida albicans [1] = experiment: Synergistic antifungal activity against FLC-resistant Candida albicans 304103 assessed as MIC of FLC incubated for 48 hrs by broth microdilution method; format: functional
Candida albicans [2] = experiment: Synergistic antifungal activity against FLC-resistant Candida albicans 17 assessed as MIC of FLC incubated for 48 hrs by broth microdilution method; format: functional
Candida albicans [3] = experiment: Synergistic antifungal activity against FLC-resistant Candida albicans 385 assessed as MIC of FLC incubated for 48 hrs by broth microdilution method; format: functional
Candida albicans [4] = experiment: Synergistic antifungal activity against FLC-resistant Candida albicans 646 assessed as MIC of FLC incubated for 48 hrs by broth microdilution method; format: functional
Candida albicans [5] = experiment: Synergistic antifungal activity against FLC-resistant Candida albicans 64548 assessed as MIC of FLC incubated for 48 hrs by broth microdilution method; format: functional
Candida albicans [6] = experiment: Synergistic antifungal activity against FLC-resistant Candida albicans 710419 assessed as MIC of FLC incubated for 48 hrs by broth microdilution method; format: functional
Candida albicans [7] = experiment: Synergistic antifungal activity against FLC-resistant Candida albicans 710513 assessed as MIC of FLC incubated for 48 hrs by broth microdilution method; format: functional
Candida albicans [8] = experiment: Synergistic antifungal activity against FLC-resistant Candida albicans 8 assessed as fungal growth inhibition incubated for 48 hrs in presence of FLC by broth microdilution method; format: functional
Candida albicans [9] = experiment: Synergistic antifungal activity against FLC-resistant Candida albicans 10 assessed as fungal growth inhibition incubated for 48 hrs in presence of FLC by broth microdilution method; format: functional
Candida albicans [10] = experiment: Synergistic antifungal activity against FLC-resistant Candida albicans 11 assessed as fungal growth inhibition incubated for 48 hrs in presence of FLC by broth microdilution method; format: functional
Candida albicans [11] = experiment: Synergistic antifungal activity against FLC-resistant Candida albicans 12 assessed as fungal growth inhibition incubated for 48 hrs in presence of FLC by broth microdilution method; format: functional
Candida albicans [12] = experiment: Synergistic antifungal activity against FLC-resistant Candida albicans 17 assessed as fungal growth inhibition incubated for 48 hrs in presence of FLC by broth microdilution method; format: functional
Candida albicans [13] = experiment: Synergistic antifungal activity against FLC-resistant Candida albicans 379 assessed as fungal growth inhibition incubated for 48 hrs in presence of FLC by broth microdilution method; format: functional
Candida albicans [14] = experiment: Synergistic antifungal activity against FLC-resistant Candida albicans 1221 assessed as fungal growth inhibition incubated for 48 hrs in presence of FLC by broth microdilution method; format: functional
Candida albicans [15] = experiment: Synergistic antifungal activity against FLC-resistant Candida albicans 64548 assessed as fungal growth inhibition incubated for 48 hrs in presence of FLC by broth microdilution method; format: functional
Candida albicans [16] = experiment: Synergistic antifungal activity against FLC-resistant Candida albicans 512681 assessed as fungal growth inhibition incubated for 48 hrs in presence of FLC by broth microdilution method; format: functional
Candida albicans [17] = experiment: Synergistic antifungal activity against FLC-resistant Candida albicans 710513 assessed as fungal growth inhibition incubated for 48 hrs in presence of FLC by broth microdilution method; format: functional
Candida albicans [18] = experiment: Synergistic antifungal activity against FLC-resistant Candida albicans 710554 assessed as fungal growth inhibition incubated for 48 hrs in presence of FLC by broth microdilution method; format: functional
Candida albicans [19] = experiment: Synergistic antifungal activity against FLC-resistant Candida albicans 304103 assessed as fractional inhibitory concentration index incubated for 48 hrs in presence of FLC by broth microdilution method; format: functional
Candida albicans [20] = experiment: Synergistic antifungal activity against FLC-resistant Candida albicans 241 assessed as fractional inhibitory concentration index incubated for 48 hrs in presence of FLC by broth microdilution method; format: functional
Candida albicans [21] = experiment: Synergistic antifungal activity against FLC-resistant Candida albicans 249 assessed as fractional inhibitory concentration index incubated for 48 hrs in presence of FLC by broth microdilution method; format: functional
Candida albicans [22] = experiment: Synergistic antifungal activity against FLC-resistant Candida albicans 379 assessed as fractional inhibitory concentration index incubated for 48 hrs in presence of FLC by broth microdilution method; format: functional
Candida albicans [23] = experiment: Synergistic antifungal activity against FLC-resistant Candida albicans 953 assessed as fractional inhibitory concentration index incubated for 48 hrs in presence of FLC by broth microdilution method; format: functional
Candida albicans [24] = experiment: Synergistic antifungal activity against FLC-resistant Candida albicans 605141 assessed as fractional inhibitory concentration index incubated for 48 hrs in presence of FLC by broth microdilution method; format: functional
Candida albicans [25] = experiment: Synergistic antifungal activity against FLC-resistant Candida albicans 710513 assessed as fractional inhibitory concentration index incubated for 48 hrs in presence of FLC by broth microdilution method; format: functional
Candida albicans [26] = experiment: Synergistic antifungal activity against Candida albicans 0304103 assessed as fungal growth inhibition at 4 ug/ml incubated for 48 hrs in presence of FLC by time-kill assay; format: functional, organism-based; details: dose 4.0 µg/ml
Candida albicans [27] = experiment: Synergistic antifungal activity against Candida albicans 0304103 assessed as reduction in fungal growth at 8 ug/ml incubated for 48 hrs in presence of FLC by time-kill assay; format: functional; details: dose 8 µg/ml
Candida albicans [28] = experiment: Inhibition of hypha formation in Candida albicans SC5314 at 4 ug/ml incubated for 3 hrs by inverted phase contrast microscopy; format: functional, organism-based; details: dose 4.0 µg/ml
Candida albicans [29] = experiment: Inhibition of biofilm formation of Candida albicans SC5314 at 4 ug/ml incubated for 24 hrs by XTT assay relative to control; format: functional
Candida albicans [30] = experiment: Inhibition of biofilm formation of Candida albicans SC5314 at 8 ug/ml incubated for 24 hrs by XTT assay relative to control; format: functional
Candida albicans [31] = experiment: Synergistic inhibition of biofilm formation of Candida albicans SC5314 at 2 ug/ml incubated for 24 hrs in presence of 0.0625 ug/ml of FLC by XTT assay relative to control; format: functional
Candida albicans [32] = experiment: Synergistic inhibition of biofilm formation of Candida albicans SC5314 incubated for 24 hrs in presence of FLC by XTT assay; format: functional, organism-based; details: dose <= 16.0 µg/ml
Candida albicans [33] = experiment: Synergistic inhibition of biofilm formation of Candida albicans SC5314 at 0.5 ug/ml incubated for 24 hrs in presence of 1 ug/ml of FLC by XTT assay relative to control; format: functional
Candida albicans [34] = experiment: Antifungal activity against Candida albicans SC5314 infected in C57BL/6 mouse assessed as mean fungal burden at 2 mg/kg, ip measured after 46 hrs by plate count method (reference value: 6.902 log10CFU/ml); format: functional
[35] = C0 in Sprague-Dawley rat at 2 mg/kg, iv by LC-MS/MS analysis; format: ADME, organism-based; details: in vivo
[36] = Tmax in Sprague-Dawley rat at 5 mg/kg, po by LC-MS/MS analysis; format: ADME, organism-based; details: in vivo
[37] = MRT (0 to t) in Sprague-Dawley rat at 5 mg/kg, po by LC-MS/MS analysis; format: ADME, organism-based; details: in vivo
Candida albicans [38] = experiment: Antifungal activity against Candida albicans SC5314 assessed as fungal growth inhibition incubated for 48 hrs in presence of Cu2+ by broth microdilution method (reference value: […] ug/ml); format: functional
Candida albicans [39] = experiment: Inhibition of biofilm formation of Candida albicans SC5314 incubated for 24 hrs by XTT assay; format: functional, organism-based; details: dose <= 16.0 µg/ml

Question: With `CCN(CC)c1ccc(C(NC(=O)C(C)C)c2ccc3cccnc3c2O)cc1` (centres undefined) as the compound, how does the MIC (Candida albicans [1]) read?
Answer: 0.5 µg/mL

Question: And the MIC (Candida albicans [2])?
Answer: 0.125 µg/mL

Question: What about the MIC (Candida albicans [3]) of the same compound?
Answer: 2 µg/mL

Question: What about the MIC (Candida albicans [4]) of the same compound?
Answer: 1 µg/mL

Question: What about the MIC (Candida albicans [5]) of the same compound?
Answer: 0.063 µg/mL

Question: What about the MIC (Candida albicans [6]) of the same compound?
Answer: 0.25 µg/mL

Question: What about the MIC (Candida albicans [7]) of the same compound?
Answer: 1 µg/mL

Question: And the MIC (Candida albicans [8])?
Answer: 0.031 µg/mL

Question: And the MIC (Candida albicans [9])?
Answer: 0.008 µg/mL

Question: And the MIC (Candida albicans [10])?
Answer: 0.008 µg/mL

Question: What about the MIC (Candida albicans [11]) of the same compound?
Answer: 0.008 µg/mL

Question: And the MIC (Candida albicans [12])?
Answer: 0.016 µg/mL

Question: And the MIC (Candida albicans [13])?
Answer: 0.008 µg/mL

Question: And the MIC (Candida albicans [14])?
Answer: 0.031 µg/mL

Question: And the MIC (Candida albicans [15])?
Answer: 0.031 µg/mL

Question: And the MIC (Candida albicans [16])?
Answer: 0.031 µg/mL

Question: And the MIC (Candida albicans [17])?
Answer: 0.016 µg/mL

Question: What about the MIC (Candida albicans [18]) of the same compound?
Answer: 0.031 µg/mL

Question: What about the “fractional inhibitory concentration index (FICI)” value (Candida albicans [19]) of the same compound?
Answer: 0.047

Question: And the “fractional inhibitory concentration index (FICI)” value (Candida albicans [20])?
Answer: 0.039

Question: And the “fractional inhibitory concentration index (FICI)” value (Candida albicans [21])?
Answer: 0.035

Question: What about the “fractional inhibitory concentration index (FICI)” value (Candida albicans [22]) of the same compound?
Answer: 0.039

Question: What about the “fractional inhibitory concentration index (FICI)” value (Candida albicans [23]) of the same compound?
Answer: 0.032

Question: What about the “fractional inhibitory concentration index (FICI)” value (Candida albicans [24]) of the same compound?
Answer: 0.063

Question: And the “fractional inhibitory concentration index (FICI)” value (Candida albicans [25])?
Answer: 0.039

Question: And the “growth inhibition (GI)” value (Candida albicans [26])?
Answer: Active

Question: What about the Activity (Candida albicans [27]) of the same compound?
Answer: >3 log10CFU/ml

Question: And the inhibition (Candida albicans [28])?
Answer: inactive

Question: And the inhibition at 4 µg/mL (Candida albicans [29])?
Answer: 7.44%

Question: What about the inhibition at 8 µg/mL (Candida albicans [30]) of the same compound?
Answer: 16.5%

Question: And the inhibition at 2 µg/mL (Candida albicans [31])?
Answer: 15.6%

Question: And the inhibition (Candida albicans [32])?
Answer: Dose-Dependent Effect

Question: What about the inhibition at 0.5 µg/mL (Candida albicans [33]) of the same compound?
Answer: 48.7%

Question: And the Activity (Candida albicans [34])?
Answer: 6.318 log10CFU/ml

Question: And the C0 [35]?
Answer: 2460 ng/mL

Question: And the Tmax [36]?
Answer: 15 min

Question: And the MRT last [37]?
Answer: 48.8 min

Question: Which MIC (Candida albicans [38]) does the source give for `Oc1c(I)cc(Cl)c2cccnc12` [CLIOQUINOL] here?
Answer: 128 µg/mL

Question: Which inhibition (Candida albicans [39]) does the source give for `OC(Cn1cncn1)(Cn1cncn1)c1ccc(F)cc1F` [FLUCONAZOLE] here?
Answer: Dose-Dependent Effect
